The values below come from patent publication US20250049779A1, “COMBINATION OF AN A2-ADRENOCEPTOR SUBTYPE C (ALPHA-2C) ANTAGONIST WITH A NOREPINEPHRINE REUPTAKE INHIBITOR FOR THE TREATMENT OF SLEEP APNEA” (Bayer Aktiengesellschaft, priority 2021, published 2025).

The test has as its system upper airway collapsibility. Description: pig model of obstructive sleep apnea (OSA): collapse of the upper respiratory tract induced by negative pressure in anaesthetized, spontaneously breathing pigs. The note with it: for Percent pigs without collaps −150 cm H2O, %: −150 cm H2O (column head; title prints −100). The test is classed as in vivo, German Landrace pigs. The text has this: The therapeutic potential of the combination of an α2-Adrenoceptor subtype C (alpha-2C) antagonists with a noradrenaline reuptake inhibitor according to the present invention in sleep apnea can be assessed preclinically in a pig model of obstructive sleep apnea (OSA).
Using negative pressure, it is possible to induce collapse and thus obstruction of the upper respiratory tract in anaesthetized, spontaneously breathing pigs (Wirth K. J. et al., Sleep 36(5) (2013) pp. 699-708).
German Landrace pigs are used for the model. The pigs are anaesthetized and tracheotomized. Two tracheal cannulas are inserted into the trachea, one into the rostral part and the other into the caudal part of the trachea. Using a connection piece, the rostral cannula is connected to a tube to the negative pressure device and to the distal tracheal cannula. The distal tracheal cannula is additionally connected to a tube with an open end to atmosphere via a connection piece that served for free tracheal breathing, circumventing the upper airway. By appropriate opening and clamping of those tubes breathing can be switched from nasal breathing to breathing through the caudal tracheal cannula, circumventing the upper airway, and the (isolated) upper airway can be connected to the negative pressure device, causing airflow in the inspiratory direction.
At certain points in time, the collapsibility of the upper respiratory tract is tested by having the pig breathe via the caudal cannula and applying negative pressures of −50, −100 and −150 cm water head (cm H2O) to the upper respiratory tract. This causes the upper respiratory tract to collapse, which manifests itself in an interruption of the airflow and a pressure drop in the tube system. This test is conducted prior to the administration of the test substance and at certain intervals after the administration of the test substance. An appropriately effective test substance can prevent this collapse of the respiratory tract in the inspiratory phase.

[1] abbreviates: intravenous bolus 20 μg/kg then infusion 12.5 μg/kg/h for four hours, time 0 min (time of administration).
[2] abbreviates: intravenous bolus 20 μg/kg then infusion 12.5 μg/kg/h for four hours, time 10 min.
Where [3] appears, read: intravenous bolus 20 μg/kg then infusion 12.5 μg/kg/h for four hours, time 30 min.
Where [4] appears, read: intravenous bolus 20 μg/kg then infusion 12.5 μg/kg/h for four hours, time 60 min.
[5] abbreviates: intravenous bolus 20 μg/kg then infusion 12.5 μg/kg/h for four hours, time 120 min.
[6] abbreviates: intravenous bolus 20 μg/kg then infusion 12.5 μg/kg/h for four hours, time 180 min.
The mark [7] stands for this setting: intravenous bolus 20 μg/kg then infusion 12.5 μg/kg/h for four hours, time 240 min.

Regarding `C[C@@H]1CCCN(C2CCN(c3ncc(C(=O)NCc4ncc(F)cc4F)s3)CC2)C1` [N-[(3,5-difluoropyridin-2-yl)methyl]-2-[(3R)-3-methyl[1,4′-bipiperidin]-1′-yl]-1,3-thiazole-5-carboxamide], the “inhibited upper airway collapsibility at all negative pressures of −50, −100 and −150 cm head (cm H2O) in all pigs” value (0.01 mg/kg intraduodenal) is on record as “at no time point”. For the setting “0.01 mg/kg intraduodenal, 120 min after administration”, the “upper airway collapsibility at the negative pressures of −50 and −100 cm head (cm H2O)” value was “inhibited”. Also, the “upper airway collapsibility at the negative pressure of −50 cm head (cm H2O)” value (0.01 mg/kg intraduodenal, 150 min after administration) was “inhibited”.
Consider `CNCC[C@@H](Oc1ccccc1C)c1ccccc1` [atomoxetine], for which the “inhibited upper airway collapsibility at all negative pressures of −50, −100 and −150 cm head (cm H2O) in all pigs” value (intravenous bolus 20 μg/kg then infusion 12.5 μg/kg/h for four hours) is listed as “at no time”. Further, the “Percent pigs without collaps −50 cm H2O, %” value runs as follows: under setting [1], 0%; under setting [2], 0%; under setting [3], 0%; under setting [4], 0%; under setting [5], 0%; under setting [6], 0%. The “Percent pigs without collaps −50 cm H2O, %” value under setting [7] is reported as 0%. Further, the “Percent pigs without collaps −100 cm H2O, %” value by setting is: under setting [1], 0%; under setting [2], 0%; under setting [3], 0%; under setting [4], 0%; under setting [5], 0%; under setting [6], 0%. Moreover, the “Percent pigs without collaps −100 cm H2O, %” value under setting [7] came out at 0%. Besides, the “Percent pigs without collaps −150 cm H2O, %” value by setting is: under setting [1], 0%; under setting [2], 0%; under setting [3], 0%; under setting [4], 0%; under setting [5], 0%; under setting [6], 0%. In addition, the “Percent pigs without collaps −150 cm H2O, %” value under setting [7] is 0%.
